Data on 17 compounds can be found in patent US4299767A, “Benzodiazepine derivatives” (Hoffmann-La Roche Inc., priority 1978, dated 1981).

What is called LD50 is the dose at which mortality reaches 50%. A higher LD50 goes with lower toxicity.

Read-outs that look alike come from different tables or passages of the source. Where only a bound is given, the exact number is not on record here.

For data set [1], the system named is aldosterone. Kind of data set: aldosterone-antagonistic properties in adrenalectomised rats (urine volume, sodium and potassium excretion). In kind it is in vivo, adrenalectomised female Holtzmann rats. The following applies: for response vs control in vivo at 1 mg/kg / response vs control in vivo at 10 mg/kg / response vs control in vivo at 0.1 mg/kg / response vs control in vivo at 3 mg/kg: Rattus norvegicus, po. As to the method: If benzodiazepine derivatives of formula I are administered to the animals before the treatment with aldosterone, then there is observed, in comparison with the animals which are treated only with aldosterone (control animals), a pronounced increase of the sodium excretion (i.e. the sodium retention caused by aldosterone is antagonised), whereas the potassium excretion and the urine volume are influenced to a lesser extent.
The standard experiment is carried out as follows:
Female Holtzmann rates (150-180 g) are bilaterally adrenalectomised 70 to 74 hours before the beginning of the experiment. After the operation, the animals receive a customary rat dry feed and 0.9% sodium chloride solution for drinking. 16-17 hours before the beginning of the experiment the feed is removed from the animals, but they can still drink, as before, 0.9% sodium chloride solution ad libitum. At the beginning of the experiment the substance to be tested as an aldosterone-antagonist is administered to the animals by means of a stomach probe. 30 minutes later the animals receive a subcutaneous injection of […] of aldosterone. After a further 90 minutes, the urinary bladders of the animals are emptied by careful suprapublic pressure, whereupon the animals are placed individually in metabolic cages without food and without drink. The urine of the animals is then collected for 3hours, whereupon their urinary bladders are once more emptied. The spontaneously excreted urine and the remaining urine obtained at the conclusion of the experiment by pressing-out the urinary bladders are collected in graduated centrifuge glasses. Sodium and potassium concentrations in the urine are determined with a flame photometer.
(§1) The following Table contains results obtained in the previously described experiment with representative benzodiazepine derivatives of formula I. In this Table there are given for each benzodiazepine derivative in question the dosage administered (in mg/kg p.o.) as well as the percentage variation in the urine volume, the sodium excretion and the potassium excretion in comparison with the control animals (i.e. in comparison with the animals treated only with aldosterone). Moreover, the Table contains data relating to the acute toxicity of the benzodiazepine derivatives investigated (LD 50 in mg/kg in the case of a single oral administration to mice).

The nature of data set [2]: acute toxicity, single oral administration to mice. The settings on record: mouse, in vivo, p.o.
Excerpt: as §1

Where [3] appears, read: read-out: potassium excretion [K+], in %, based on control animals.
Where [4] appears, read: read-out: sodium excretion [Na+], in %, based on control animals.
Where [5] appears, read: read-out: urine volume, in %, based on control animals.
The mark [6] stands for this setting: aldosterone alone, in comparison with untreated animals.

For the compound `CN1C(=O)CN=C(c2ccccc2F)c2cc(NC(=O)NCc3ccccc3)ccc21` [Example 3, 1-benzyl-3-[5-(o-fluorophenyl)-2,3-dihydro-1-methyl-2-oxo-1H-1,4-benzodiazepin-7-yl]urea], the response vs control in vivo at 1 mg/kg in data set [1] (setting [3]) amounted to 153%; in data set [1] (setting [4]) it was 255%; in data set [1] (setting [5]), 139%. In data set [2], the 50% lethal dose (LD50) is over 5000 mg/kg.

As to `CCN(C)C(=O)Nc1ccc2c(c1)C(c1ccccc1F)=NCC(=O)N2C` [Example 4, 1-ethyl-3-[5-(o-fluorophenyl)-2,3-dihydro-1-methyl-2-oxo-1H-1,4-benzodiazepin-7-yl]-1-methylurea], the response vs control in vivo at 1 mg/kg in data set [1] (setting [3]) was 97%; in data set [1] (setting [4]), 291%; in data set [1] (setting [5]) it was 100%. The compound further gave an LD50 in data set [2] of over 5000 mg/kg.

Regarding `CN1C(=O)CN=C(c2ccccc2F)c2cc(NC(=O)NC(C)(C)C)ccc21` [Example 2, 1-tert.butyl-3-[5-(o-fluorophenyl)-2,3-dihydro-1-methyl-2-oxo-1H-1,4-benzodiazepin-7-yl]urea], the response vs control in vivo at 1 mg/kg came to 132% in data set [1] (setting [3]), 236% in data set [1] (setting [4]) and 194% in data set [1] (setting [5]). The response vs control in vivo at 10 mg/kg stood at 70% in data set [1] (setting [3]), 234% in data set [1] (setting [4]) and 105% in data set [1] (setting [5]). In data set [2], this compound gave a median lethal dose (LD50) of 600 to 1200 mg/kg.

In the case of `CN(C)C(=O)Nc1ccc2c(c1)C(c1ccccc1F)=NCC(=O)N2C` [Example 32, 3-[5-(o-fluorophenyl)-2,3-dihydro-1-methyl-2-oxo-1H-1,4-benzodiazepin-7-yl]-1,1-dimethylurea], the response vs control in vivo at 10 mg/kg in data set [1] (setting [3]) was determined as 91%; in data set [1] (setting [4]), 190%; in data set [1] (setting [5]) it was 102%. This compound also came in with an LD50 in data set [2] of over 5000 mg/kg.

Consider `CN1C(=O)CN=C(c2ccccc2F)c2cc(NC(=O)N3CCCC3)ccc21` [Example 6, N-[5-(o-fluorophenyl)-2,3-dihydro-1-methyl-2-oxo-1H-1,4-benzodiazepin-7-yl]-1-pyrrolidinecarboxamide], for which the results for the response vs control in vivo at 1 mg/kg in data set [1] (setting [3]), in data set [1] (setting [4]) and in data set [1] (setting [5]) were 112%, 308% and 184%, respectively. The same compound registered a 50% lethal dose (LD50) in data set [2] of over 5000 mg/kg.

Regarding `CCN(CC)C(=O)Nc1ccc2c(c1Cl)C(c1ccccc1F)=NCC(=O)N2C` [Example 11, 3-[6-chloro-5-(o-fluorophenyl)-2,3-dihydro-1-methyl-2-oxo-1H-1,4-benzodiazepin-7-yl]-1,1-diethylurea], the response vs control in vivo at 10 mg/kg in data set [1] (setting [3]) amounted to 110%; in data set [1] (setting [4]), 236%; in data set [1] (setting [5]), 124%. In addition, the LD50 in data set [2] is over 5000 mg/kg.

As for `CN1C(=O)CN=C(c2ccccc2F)c2cc(NC(=O)NCCO)ccc21` [Example 7, 1-[5-(o-fluorophenyl)-2,3-dihydro-1-methyl-2-oxo-1H-1,4-benzodiazepin-7-yl]-3-(2-hydroxyethyl)urea], the values for the response vs control in vivo at 0.1 mg/kg in data set [1] (setting [3]), in data set [1] (setting [4]) and in data set [1] (setting [5]) were 121%, 247% and 85%, respectively. Further, the LD50 in data set [2] is over 5000 mg/kg.

As for `CNC(=O)Nc1ccc2c(c1Cl)C(c1ccccc1F)=NCC(=O)N2C` [Example 9, 1-[6-chloro-5-(o-fluorophenyl)-2,3-dihydro-1-methyl-2-oxo-1H-1,4-benzodiazepin-7-yl]-3-methylurea], the figures for the response vs control in vivo at 1 mg/kg in data set [1] (setting [3]), in data set [1] (setting [4]) and in data set [1] (setting [5]) were 91%, 330% and 178%, respectively. In data set [2], this compound returned a 50% lethal dose (LD50) of 1250 to 2500 mg/kg.

Consider `CC(CO)NC(=O)Nc1ccc2c(c1)C(c1ccccc1F)=NCC(=O)N2C` (racemic) [Example 8, rac-1-[5-(o-fluorophenyl)-2,3-dihydro-1-methyl-2-oxo-1H-1,4-benzodiazepin-7-yl]-3-(2-hydroxy-1-methylethyl)urea], for which the results for the response vs control in vivo at 1 mg/kg in data set [1] (setting [3]), in data set [1] (setting [4]) and in data set [1] (setting [5]) were 80%, 127% and 73%, respectively. In addition, the response vs control in vivo at 10 mg/kg in data set [1] (setting [3]) is 129%; in data set [1] (setting [4]) it was 452%; in data set [1] (setting [5]) it was 200%. Moreover, the LD50 in data set [2] was over 5000 mg/kg.

On to `C[C@]12CCC(=O)C=C1CC[C@@H]1[C@@H]2[C@@H](O)C[C@]2(C=O)[C@@H](C(=O)CO)CC[C@@H]12` [aldosterone, reference compound], for which, in data set [1] (setting [6]), the excreted urine volume result is listed as “reduction of the excreted urine volume”, the potassium excretion entry is given as “increased potassium excretion” and the sodium excretion result is given as “pronounced reduction of the sodium excretion”.

In the case of `CN1C(=O)CN=C(c2ccccc2F)c2c1ccc(NC(=O)NCCO)c2Cl` [Example 13, 1-[6-chloro-5-(o-fluorophenyl)-2,3-dihydro-1-methyl-2-oxo-1H-1,4-benzodiazepin-7-yl]-3-(2-hydroxyethyl)urea], the results for the response vs control in vivo at 1 mg/kg in data set [1] (setting [3]), in data set [1] (setting [4]) and in data set [1] (setting [5]) were 110%, 242% and 140%, respectively. The compound further yielded a median lethal dose (LD50) in data set [2] of over 5000 mg/kg.

Turning to `CCNC(=O)Nc1ccc2c(c1Cl)C(c1ccccc1F)=NCC(=O)N2C` [Example 34, 1-[6-chloro-5-(o-fluorophenyl)-2,3-dihydro-1-methyl-2-oxo-1H-1,4-benzodiazepin-7-yl]-3-ethylurea], the response vs control in vivo at 10 mg/kg in data set [1] (setting [3]) was 149%; in data set [1] (setting [4]), 271%; in data set [1] (setting [5]) it was 156%. Also, the LD50 in data set [2] was in the range of 2500 to 5000 mg/kg.

Take `CN1C(=O)CN=C(c2ccccc2F)c2cc(NC(=O)N3CC3)ccc21` [Example 5, N-[5-(o-fluorophenyl)-2,3-dihydro-1-methyl-2-oxo-1H-1,4-benzodiazepin-7-yl]-1-aziridinecarboxamide]: the results for the response vs control in vivo at 1 mg/kg in data set [1] (setting [3]), in data set [1] (setting [4]) and in data set [1] (setting [5]) were 146%, 294% and 192%, respectively. The response vs control in vivo at 10 mg/kg in data set [1] (setting [3]) amounted to 108%; in data set [1] (setting [4]), 237%; in data set [1] (setting [5]), 129%. The LD50 in data set [2] was over 5000 mg/kg.

For `COc1ccc(NC(=O)Nc2ccc3c(c2)C(c2ccccc2F)=NCC(=O)N3C)cc1` [Example 33, 1-[5-(o-fluorophenyl)-2,3-dihydro-1-methyl-2-oxo-1H-1,4-benzodiazepin-7-yl]-3-(p-methoxyphenyl)urea], the response vs control in vivo at 10 mg/kg amounted to 145% in data set [1] (setting [3]), 240% in data set [1] (setting [4]) and 117% in data set [1] (setting [5]). In data set [2], this compound registered a median lethal dose (LD50) of over 5000 mg/kg.

`CCN(C)C(=O)Nc1ccc2c(c1Cl)C(c1ccccc1F)=NCC(=O)N2C` [Example 12, 3-[6-chloro-5-(o-fluorophenyl)-2,3-dihydro-1-methyl-2-oxo-1H-1,4-benzodiazepin-7-yl]-1-ethyl-1-methylurea]: the response vs control in vivo at 1 mg/kg in data set [1] (setting [3]) turned out to be 118%; in data set [1] (setting [4]), 278%; in data set [1] (setting [5]), 136%. This compound had a median lethal dose (LD50) in data set [2] of 2500 to 5000 mg/kg.

Consider `CNC(=O)Nc1ccc2c(c1)C(c1ccccc1F)=NCC(=O)N2C` [Example 1, 1-[5-(o-Fluorophenyl)-2,3-dihydro-1-methyl-2-oxo-1H-1,4-benzodiazepin-7-yl]-3-methylurea], for which the response vs control in vivo at 3 mg/kg in data set [1] (setting [3]) was 84%; in data set [1] (setting [4]) it was 182%; in data set [1] (setting [5]), 95%. Also, the median lethal dose (LD50) in data set [2] was over 5000 mg/kg.

Consider `CCCCNC(=O)Nc1ccc2c(c1Cl)C(c1ccccc1F)=NCC(=O)N2C` [Example 10, 1-butyl-3-[6-chloro-5-(o-fluorophenyl)-2,3-dihydro-1-methyl-2-oxo-1H-1,4-benzodiazepin-7-yl]urea], for which the response vs control in vivo at 1 mg/kg was 104% in data set [1] (setting [3]), 380% in data set [1] (setting [4]) and 175% in data set [1] (setting [5]). Also, the LD50 in data set [2] is over 5000 mg/kg.
